Test results reported in ChEMBL document CHEMBL1201862, “PubChem BioAssay data set” (2004).
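Following 48 hours of exposure in 96-well plates, responses at five concentrations were used to interpolate endpoints linearly. GI50: concentration for 50% inhibition of growth.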 The source made the active and inactive calls. No stated cut-off is given here; in the data, active = GI50 up to about 1.1 µM and inactive = higher.

Key:
Experiment in all cases: NCI-60 cell line screen, 48 h
Malme-3M = tested on: Malme-3M
SK-MEL-28 = tested on: SK-MEL-28
MDA-MB-231 = tested on: MDA-MB-231
EKVX = tested on: EKVX
U-251 = tested on: U-251
A498 = tested on: A498
K562 = tested on: K562
MDA-N = tested on: MDA-N
NCI-H522 = tested on: NCI-H522
SF-539 = tested on: SF-539
NCI-H226 = tested on: NCI-H226
PC-3 = tested on: PC-3
A549 = tested on: A549
MDA-MB-435 = tested on: MDA-MB-435
BT-549 = tested on: BT-549
786-0 = tested on: 786-0
HOP-92 = tested on: HOP-92
MOLT-4 = tested on: MOLT-4
OVCAR-3 = tested on: OVCAR-3
CAKI-1 = tested on: CAKI-1

| SMILES | GI50 (Malme-3M) | GI50 (SK-MEL-28) | GI50 (MDA-MB-231) | GI50 (EKVX) | GI50 (U-251) | GI50 (A498) | GI50 (K562) | GI50 (MDA-N) | GI50 (NCI-H522) | GI50 (SF-539) | GI50 (NCI-H226) | GI50 (PC-3) | GI50 (A549) | GI50 (MDA-MB-435) | GI50 (BT-549) | GI50 (786-0) | GI50 (HOP-92) | GI50 (MOLT-4) | GI50 (OVCAR-3) | GI50 (CAKI-1) |
| --- | --- | --- | --- | --- | --- | --- | --- | --- | --- | --- | --- | --- | --- | --- | --- | --- | --- | --- | --- | --- |
| O=C1NC(=S)NC(=O)C1=Cc1cccc2cc3ccccc3cc12 | 2.11 µM (inactive) | 2.57 µM (inactive) | 2.01 µM (inactive) | 2.91 µM (inactive) | 1.69 µM (inactive) | 1.97 µM (inactive) | 2.07 µM (inactive) | 2.19 µM (inactive) | 1.91 µM (inactive) | 1.58 µM (inactive) | 2.03 µM (inactive) | 1.74 µM (inactive) | 3.08 µM (inactive) | 2.12 µM (inactive) | 1.71 µM (inactive) | 1.61 µM (inactive) | 1.66 µM (inactive) | 2.12 µM (inactive) | 1.76 µM (inactive) | 2.03 µM (inactive) |
| CC12C=CC(=O)C=C1CCC1C3CCC(O)(C(=O)CO)C3(C)CC(O)C12F (stereo not given) | > 100 µM (inactive) | > 100 µM (inactive) | > 100 µM (inactive) | 43.5 µM (inactive) | > 100 µM (inactive) | > 100 µM (inactive) | > 100 µM (inactive) | > 100 µM (inactive) | > 100 µM (inactive) | > 100 µM (inactive) | > 100 µM (inactive) | > 100 µM (inactive) | > 100 µM (inactive) | > 100 µM (inactive) | 95.3 µM (inactive) | > 100 µM (inactive) | > 100 µM (inactive) | > 100 µM (inactive) | > 100 µM (inactive) | > 100 µM (inactive) |
| C=CCOc1cc(NC(=S)c2ccoc2C)ccc1OC | > 100 µM (inactive) | > 100 µM (inactive) | > 100 µM (inactive) | > 100 µM (inactive) | 58.9 µM (inactive) | > 100 µM (inactive) | > 100 µM (inactive) | > 100 µM (inactive) | > 100 µM (inactive) | > 100 µM (inactive) | > 100 µM (inactive) | > 100 µM (inactive) | > 100 µM (inactive) | > 100 µM (inactive) | > 100 µM (inactive) | > 100 µM (inactive) | 27.9 µM (inactive) | > 100 µM (inactive) | > 100 µM (inactive) | > 100 µM (inactive) |
| COCc1nc2c(OC)c(-c3nc4ccc(N5CCN(C)CC5)cc4[nH]3)cc(OC)c2[nH]1 | 16.9 µM (inactive) | > 100 µM (inactive) | 30.2 µM (inactive) | 99.8 µM (inactive) | 42 µM (inactive) | > 100 µM (inactive) | 38.8 µM (inactive) | 33.1 µM (inactive) | 31.1 µM (inactive) | 20 µM (inactive) | > 100 µM (inactive) | 42.9 µM (inactive) | 48.9 µM (inactive) | 33 µM (inactive) | > 100 µM (inactive) | 40.1 µM (inactive) | > 100 µM (inactive) | 41.1 µM (inactive) | 29.7 µM (inactive) | 41.7 µM (inactive) |
| CCOC(=O)C1=C(N2CCCC2)C(=O)C(C(=O)OCC)C1 (stereo not given) | > 100 µM (inactive) | > 100 µM (inactive) | > 100 µM (inactive) | > 100 µM (inactive) | > 100 µM (inactive) | > 100 µM (inactive) | > 100 µM (inactive) | > 100 µM (inactive) | > 100 µM (inactive) | > 100 µM (inactive) | > 100 µM (inactive) | > 100 µM (inactive) | > 100 µM (inactive) | > 100 µM (inactive) | > 100 µM (inactive) | > 100 µM (inactive) | > 100 µM (inactive) | > 100 µM (inactive) | > 100 µM (inactive) | > 100 µM (inactive) |
| COc1cccc(OC)c1NC(=O)C(=O)Nn1c(NNC(=O)c2ccncc2)nc2ccccc2c1=O | > 100 µM (inactive) | > 100 µM (inactive) | > 100 µM (inactive) | 84.9 µM (inactive) | > 100 µM (inactive) | > 100 µM (inactive) | > 100 µM (inactive) | > 100 µM (inactive) | > 100 µM (inactive) | > 100 µM (inactive) | > 100 µM (inactive) | > 100 µM (inactive) | > 100 µM (inactive) | > 100 µM (inactive) | > 100 µM (inactive) | > 100 µM (inactive) | > 100 µM (inactive) | > 100 µM (inactive) | > 100 µM (inactive) | > 100 µM (inactive) |
| CN(C)c1ccc(-c2ccc(N(C)C)c3n[se]nc23)c2n[se]nc12 | > 100 µM (inactive) | > 100 µM (inactive) | > 100 µM (inactive) | > 100 µM (inactive) | > 100 µM (inactive) | > 100 µM (inactive) | > 100 µM (inactive) | > 100 µM (inactive) | > 100 µM (inactive) | > 100 µM (inactive) | > 100 µM (inactive) | > 100 µM (inactive) | > 100 µM (inactive) | > 100 µM (inactive) | > 100 µM (inactive) | > 100 µM (inactive) | > 100 µM (inactive) | > 100 µM (inactive) | > 100 µM (inactive) | > 100 µM (inactive) |
| Cn1c(=O)nc2n(CCO)ccnc-2c1=O | > 100 µM (inactive) | > 100 µM (inactive) | > 100 µM (inactive) | > 100 µM (inactive) | > 100 µM (inactive) | > 100 µM (inactive) | > 100 µM (inactive) | > 100 µM (inactive) | > 100 µM (inactive) | > 100 µM (inactive) | > 100 µM (inactive) | > 100 µM (inactive) | > 100 µM (inactive) | > 100 µM (inactive) | > 100 µM (inactive) | > 100 µM (inactive) | > 100 µM (inactive) | > 100 µM (inactive) | > 100 µM (inactive) | > 100 µM (inactive) |
| COc1cccc(Nc2nc(N)nc(N)c2N=O)c1 | 29.2 µM (inactive) | 22 µM (inactive) | 28.5 µM (inactive) | 19.4 µM (inactive) | 31.8 µM (inactive) | 21.7 µM (inactive) | 31.3 µM (inactive) | 30.8 µM (inactive) | 8.65 µM (inactive) | 15.3 µM (inactive) | 22.5 µM (inactive) | 10.2 µM (inactive) | 31 µM (inactive) | 16.9 µM (inactive) | 28 µM (inactive) | 19 µM (inactive) | 7.14 µM (inactive) | 7.24 µM (inactive) | 15.6 µM (inactive) | 11.3 µM (inactive) |
| CC(=O)NCCC1CN(C(=O)/C=C/I)c2ccccc21 (stereo not given) | 13 µM (inactive) | 6.04 µM (inactive) | 2.91 µM (inactive) | 15.4 µM (inactive) | 10.8 µM (inactive) | 6.98 µM (inactive) | 3.73 µM (inactive) | 3.08 µM (inactive) | 1.39 µM (inactive) | 8 µM (inactive) | 14.5 µM (inactive) | 8.81 µM (inactive) | 17.2 µM (inactive) | 5.93 µM (inactive) | 5.42 µM (inactive) | 1.32 µM (inactive) | 1.9 µM (inactive) | 3.79 µM (inactive) | 5.86 µM (inactive) | 4.75 µM (inactive) |
| COc1ccc(Cl)cc1NC(=O)O/N=C(\Cl)C(C)C | 1.94 µM (inactive) | 18.4 µM (inactive) | 6.22 µM (inactive) | 3.74 µM (inactive) | 26.4 µM (inactive) | 21.5 µM (inactive) | 1.98 µM (inactive) | 11.4 µM (inactive) | 0.752 µM (active) | 13.1 µM (inactive) | 12.7 µM (inactive) | 17.4 µM (inactive) | 18.8 µM (inactive) | 18.3 µM (inactive) | 2.56 µM (inactive) | 13 µM (inactive) | 1.97 µM (inactive) | 2.03 µM (inactive) | 6 µM (inactive) | 1.82 µM (inactive) |
| O/N=C(/CC(O)(C(F)(F)F)C(F)(F)F)c1ccccc1 | > 10 µM (inactive) | > 10 µM (inactive) | > 10 µM (inactive) | > 10 µM (inactive) | > 10 µM (inactive) | > 10 µM (inactive) | > 10 µM (inactive) | > 10 µM (inactive) | > 10 µM (inactive) | > 10 µM (inactive) | > 10 µM (inactive) | > 10 µM (inactive) | > 10 µM (inactive) | > 10 µM (inactive) | > 10 µM (inactive) | > 10 µM (inactive) | > 10 µM (inactive) | > 10 µM (inactive) | > 10 µM (inactive) | > 10 µM (inactive) |
| COc1ccc2nc3c([N+](=O)[O-])ccc4c3c(c2c1)N=CN4CCN(C)C | 3.92 µM (inactive) | 7.01 µM (inactive) | 1.84 µM (inactive) | 4.65 µM (inactive) | 5.07 µM (inactive) | 4.16 µM (inactive) | 0.726 µM (active) | 4.71 µM (inactive) | 2.03 µM (inactive) | 3.28 µM (inactive) | 4.34 µM (inactive) | 4.65 µM (inactive) | 3.44 µM (inactive) | 6.67 µM (inactive) | 12 µM (inactive) | 3.61 µM (inactive) | 5.06 µM (inactive) | 2.04 µM (inactive) | 4.55 µM (inactive) | 1.36 µM (inactive) |
| CC1=C(CO)C(=O)O[C@@H]([C@@H](C)[C@H]2CC[C@H]3[C@@H]4C[C@@H](O)[C@@]5(O)CC=CC(=O)[C@]5(C)[C@H]4CC[C@]23C)C1 [JABOROSALACTONE D] | 15.7 µM (inactive) | 42.1 µM (inactive) | 31.3 µM (inactive) | 49.2 µM (inactive) | 37 µM (inactive) | 18.7 µM (inactive) | 26.8 µM (inactive) | 45 µM (inactive) | 14.2 µM (inactive) | 31 µM (inactive) | 35.8 µM (inactive) | 47 µM (inactive) | 38 µM (inactive) | 44.3 µM (inactive) | 27.7 µM (inactive) | 20.8 µM (inactive) | 42 µM (inactive) | 26.6 µM (inactive) | 36 µM (inactive) | > 100 µM (inactive) |
